Results published in patent publication US20250179079A1, “HEXAHYDROPYRIDO[4,3-B]INDOLYL KETONE DERIVATIVES USEFUL AS CGAS MODULATORS” (Ventus Therapeutics U.S., Inc., priority 2022, published 2025).
pIC50: −log10 of the molar value. Read-outs that look alike come from different tables or passages of the source.

Target: h-cGAS (Homo sapiens (Human), UniProt Q8N884)
Assay: hcGAS Kinase-Glo assay
Type: biochemical
[1] = Table C, raw data in parentheses, read-out: hcGAS IC50
[2] = Table C, IC50 range designation, read-out: hcGAS IC50

Chain of h-cGAS (Q8N884 whole entry): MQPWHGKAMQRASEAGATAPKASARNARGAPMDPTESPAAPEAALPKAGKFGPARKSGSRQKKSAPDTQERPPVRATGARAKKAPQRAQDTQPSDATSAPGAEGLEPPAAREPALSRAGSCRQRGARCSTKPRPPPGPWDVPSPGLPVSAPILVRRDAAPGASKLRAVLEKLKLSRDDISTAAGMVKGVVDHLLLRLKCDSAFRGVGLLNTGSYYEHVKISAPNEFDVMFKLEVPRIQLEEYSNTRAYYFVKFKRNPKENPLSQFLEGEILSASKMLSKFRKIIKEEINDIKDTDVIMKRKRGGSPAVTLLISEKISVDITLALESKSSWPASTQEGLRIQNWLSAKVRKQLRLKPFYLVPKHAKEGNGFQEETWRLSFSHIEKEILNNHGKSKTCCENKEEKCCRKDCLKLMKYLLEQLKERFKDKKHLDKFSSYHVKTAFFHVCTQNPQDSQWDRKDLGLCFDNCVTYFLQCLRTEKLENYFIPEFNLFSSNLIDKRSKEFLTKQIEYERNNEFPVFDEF

Row | pIC50 [1] | pIC50 [2] | pIC50 (read-out: hcGAS activity) | Compound
1 | 6.39 |  |  | COc1cnc(C(=O)N2CCc3[nH]c4c(Cl)c(Cl)cc(SC)c4c3C2C)nc1 (racemic) [Rac-101, (6,7-dichloro-1-methyl-9-(methylthio)-1,3,4,5-tetrahydro-2H-pyrido[4,3-b]indol-2-yl)(5-methoxypyrimidin-2-yl)methanone]
2 | 5.49 | 5.30 to 6.00 | 5.30 to 6.00 | Cc1cnc(C(=O)N2CCc3[nH]c4c(Cl)c(Cl)ccc4c3C2)[nH]1 [Compound 10, (6,7-dichloro-1,3,4,5-tetrahydro-2H-pyrido[4,3-b]indol-2-yl)(5-methyl-1H-imidazol-2-yl)methanone]
3 | 6.07 | 6.00 to 6.30 | 6.00 to 6.30 | O=C(c1ncc(F)cn1)N1CCc2[nH]c3c(Cl)c(Cl)ccc3c2C1 [Compound 15, (6,7-dichloro-1,3,4,5-tetrahydro-2H-pyrido[4,3-b]indol-2-yl)(5-fluoropyrimidin-2-yl)methanone]
4 | 7.15 | > 7.00 |  | COc1cnc(C(=O)N2CCn3nc4c(Cl)c(Cl)ccc4c3[C@@H]2C)nc1 (single isomer, unassigned) [52B*]
5 | 6.65 | 6.30 to 7.00 | 6.30 to 7.00 | O=C(c1ncc(N2CCOCC2)cn1)N1CCc2[nH]c3c(Cl)c(Cl)ccc3c2C1 [Compound 31, (6,7-dichloro-1,3,4,5-tetrahydro-2H-pyrido[4,3-b]indol-2-yl)(5-morpholinopyrimidin-2-yl)methanone]
6 | 6.03 | 6.00 to 6.30 |  | NCC(=O)N1Cc2[nH]c3c(Cl)c(Cl)ccc3c2C1 [Compound 65, 2-amino-1-(5,6-dichloro-3,4-dihydropyrrolo[3,4-b]indol-2(1H)-yl)ethan-1-one]
7 | < 5.00 | < 5.30 |  | COc1cnc(C(=O)N2CCn3nc4c(Cl)c(Cl)ccc4c3[C@H]2C)nc1 (single isomer, unassigned) [52A*]
8 | 7.42 |  |  | CC1c2c([nH]c3c(Cl)c(Cl)ccc23)CCN1C(=O)CN (racemic) [Rac-51, 2-amino-1-(6,7-dichloro-1-methyl-1,3,4,5-tetrahydro-2H-pyrido[4,3-b]indol-2-yl)ethan-1-one]
9 | 6.23 |  |  | C[C@H]1c2c([nH]c3c(Cl)c(Cl)ccc23)CCN1C(=O)c1ncc(C#N)[nH]1 (single isomer, unassigned) [95B*]
10 | 5.83 |  | 5.30 to 6.00 | CNCC(=O)N1CCc2[nH]c3c(Cl)c(Cl)ccc3c2C1 [Compound 64, 1-(6,7-dichloro-1,3,4,5-tetrahydro-2H-pyrido[4,3-b]indol-2-yl)-2-(methylamino)ethan-1-one]
11 | 7.05 |  |  | CC1c2c([nH]c3c(Cl)c(Cl)ccc23)CCN1C(=O)c1ncc(N2CCN3CC(F)(F)C[C@H]3C2)cn1 (mixture of isomers) [Rac-50, (6,7-dichloro-1-methyl-1,3,4,5-tetrahydro-2H-pyrido[4,3-b]indol-2-yl)(5-((S)-7,7-difluorohexahydropyrrolo[1,2-a]pyrazin-2(1H)-yl)pyrimidin-2-yl)methanone]
12 | 7.30 |  |  | CC1c2c([nH]c3c(Cl)c(Cl)ccc23)CCN1C(=O)c1ncc(N(C)CCN(C)C)cn1 (racemic) [Rac-47, (6,7-dichloro-1-methyl-1,3,4,5-tetrahydro-2H-pyrido[4,3-b]indol-2-yl)(5-((2-(dimethylamino)ethyl)(methyl)amino)pyrimidin-2-yl)methanone]
13 | 5.38 | 5.30 to 6.00 | 5.30 to 6.00 | NC(=O)C(=O)N1CCc2[nH]c3c(Cl)c(Cl)ccc3c2C1 [Compound 57, 2-(6,7-dichloro-1,3,4,5-tetrahydro-2H-pyrido[4,3-b]indol-2-yl)-2-oxoacetamide]
14 | 7.22 | > 7.00 |  | C[C@H]1c2c3c(-c4ccn(C)n4)cc(Cl)c(Cl)c3nn2CCN1C(=O)CO (single isomer, unassigned) [61B*]
15 | 7.10 |  | > 7.00 | CC1c2c([nH]c3c(Cl)c(Cl)ccc23)CCN1C(=O)c1nccc(OCCO)n1 (racemic) [Rac-70, (6,7-dichloro-1-methyl-1,3,4,5-tetrahydro-2H-pyrido[4,3-b]indol-2-yl)(4-(2-hydroxyethoxy)pyrimidin-2-yl)methanone]
16 | 5.88 |  |  | CONC(=O)N1CCc2[nH]c3c(Cl)c(Cl)ccc3c2C1C (racemic) [Rac-98, 6,7-dichloro-N-methoxy-1-methyl-1,3,4,5-tetrahydro-2H-pyrido[4,3-b]indole-2-carboxamide]
17 | 5.36 | 5.30 to 6.00 |  | COc1ccc(C(=O)N2CCc3[nH]c4c(Cl)c(Cl)ccc4c3C2)nn1 [Compound 56, (6,7-dichloro-1,3,4,5-tetrahydro-2H-pyrido[4,3-b]indol-2-yl)(6-methoxypyridazin-3-yl)methanone]
18 | 7.02 |  | > 7.00 | COc1ccnc(C(=O)N2CCc3[nH]c4c(Cl)c(Cl)ccc4c3C2C)n1 (racemic) [Rac-68, (6,7-dichloro-1-methyl-1,3,4,5-tetrahydro-2H-pyrido[4,3-b]indol-2-yl)(4-methoxypyrimidin-2-yl)methanone]

Row | pIC50 [1] | pIC50 [2] | pIC50 (read-out: hcGAS activity) | Compound
19 | 6.69 |  |  | COc1cnc(C(=O)N2CCc3[nH]c4c(Cl)c(Cl)ccc4c3C2C)nc1OC (racemic) [Rac-83, (6,7-dichloro-1-methyl-1,3,4,5-tetrahydro-2H-pyrido[4,3-b]indol-2-yl)(4,5-dimethoxypyrimidin-2-yl)methanone]
20 | 6.09 |  |  | CC1c2c([nH]c3c(Cl)c(Cl)ccc23)CCN1C(=O)NO (racemic) [Rac-97, 6,7-dichloro-N-hydroxy-1-methyl-1,3,4,5-tetrahydro-2H-pyrido[4,3-b]indole-2-carboxamide]
21 | 7.16 |  | > 7.00 | CC1c2c([nH]c3c(Cl)c(Cl)ccc23)CCN1C(=O)c1ncc(N2CCOCC2)cn1 (racemic) [Rac-44, (6,7-dichloro-1-methyl-1,3,4,5-tetrahydro-2H-pyrido[4,3-b]indol-2-yl)(5-morpholinopyrimidin-2-yl)methanone]
22 | 5.65 | 5.30 to 6.00 | 5.30 to 6.00 | COCCOCn1c2c(c3ccc(Cl)c(Cl)c31)CN(C(=O)c1ncc(OC)cn1)CC2 [Compound 23, (6,7-dichloro-5-((2-methoxyethoxy)methyl)-1,3,4,5-tetrahydro-2H-pyrido[4,3-b]indol-2-yl)(5-methoxypyrimidin-2-yl)methanone]
23 | 5.97 | 5.30 to 6.00 | 5.30 to 6.00 | Cn1cnc(C(=O)N2CCc3[nH]c4c(Cl)c(Cl)ccc4c3C2)n1 [Compound 9, (6,7-dichloro-1,3,4,5-tetrahydro-2H-pyrido[4,3-b]indol-2-yl)(1-methyl-1H-1,2,4-triazol-3-yl)methanone]
24 | 6.99 |  |  | CC1c2c([nH]c3c(Cl)c(Cl)ccc23)CCN1C(=O)c1ncc(N2CCN(C3COC3)CC2)cn1 (racemic) [Rac-49, (6,7-dichloro-1-methyl-1,3,4,5-tetrahydro-2H-pyrido[4,3-b]indol-2-yl)(5-(4-(oxetan-3-yl)piperazin-1-yl)pyrimidin-2-yl)methanone]
25 | 6.60 |  | > 7.00 | COCCOc1ccnc(C(=O)N2CCc3[nH]c4c(Cl)c(Cl)ccc4c3C2C)n1 (racemic) [Rac-67, (6,7-dichloro-1-methyl-1,3,4,5-tetrahydro-2H-pyrido[4,3-b]indol-2-yl)(4-(2-methoxyethoxy)pyrimidin-2-yl)methanone]
26 | 6.17 | 6.00 to 6.30 | 5.30 to 6.00 | COCCNCC(=O)N1CCc2[nH]c3c(Cl)c(Cl)ccc3c2C1 [Compound 69, 1-(6,7-dichloro-1,3,4,5-tetrahydro-2H-pyrido[4,3-b]indol-2-yl)-2-((2-methoxyethyl)amino)ethan-1-one]
27 | 6.06 | 6.00 to 6.30 | 6.00 to 6.30 | O=C(c1ncc[nH]1)N1CCc2[nH]c3c(Cl)c(Cl)ccc3c2C1 [Compound 5, (6,7-dichloro-1,3,4,5-tetrahydro-2H-pyrido[4,3-b]indol-2-yl)(1H-imidazol-2-yl)methanone]
28 | < 5.00 | < 5.30 |  | C[C@@H]1c2c([nH]c3c(Cl)c(Cl)ccc23)CCN1C(=O)CN (single isomer, unassigned) [51A*]
29 | 7.34 |  |  | COc1cnc(C(=O)N2CCc3[nH]c4c(Cl)c(Cl)cc(OC)c4c3C2C)nc1 (racemic) [Rac-132, (6,7-dichloro-9-methoxy-1-methyl-1,3,4,5-tetrahydro-2H-pyrido[4,3-b]indol-2-yl)(5-methoxypyrimidin-2-yl)methanone]
30 | 6.21 | 6.30 to 7.00 | 6.30 to 7.00 | NNC(=O)N1CCc2[nH]c3c(Cl)c(Cl)ccc3c2C1 [Compound 59, 6,7-dichloro-1,3,4,5-tetrahydro-2H-pyrido[4,3-b]indole-2-carbohydrazide]
31 | 7.29 |  | > 7.00 | CNc1cnc(C(=O)N2CCc3[nH]c4c(Cl)c(Cl)ccc4c3C2C)nc1 (racemic) [Rac-46, (6,7-dichloro-1-methyl-1,3,4,5-tetrahydro-2H-pyrido[4,3-b]indol-2-yl)(5-(methylamino)pyrimidin-2-yl)methanone]
32 | < 5.00 | < 5.30 |  | C[C@@H]1c2c3c(-c4ccn(C)n4)cc(Cl)c(Cl)c3nn2CCN1C(=O)CO (single isomer, unassigned) [61A*]
33 | 5.82 | 5.30 to 6.00 | 5.30 to 6.00 | Nc1ccnc(C(=O)N2CCc3[nH]c4c(Cl)c(Cl)ccc4c3C2)n1 [Compound 14, (4-aminopyrimidin-2-yl)(6,7-dichloro-1,3,4,5-tetrahydro-2H-pyrido[4,3-b]indol-2-yl)methanone]
34 | 7.75 | > 7.00 |  | C[C@H]1c2c([nH]c3c(Cl)c(Cl)ccc23)CCN1C(=O)CN (single isomer, unassigned) [51B*]
35 | 5.48 | 5.30 to 6.00 | 5.30 to 6.00 | O=C(c1nnn[nH]1)N1CCc2[nH]c3c(Cl)c(Cl)ccc3c2C1 [Compound 7, (6,7-dichloro-1,3,4,5-tetrahydro-2H-pyrido[4,3-b]indol-2-yl)(1H-tetrazol-5-yl)methanone]

Row | Compound | pIC50 [1] | pIC50 [2] | pIC50 (read-out: hcGAS activity)
36 | NCC(=O)N1C2COCC1c1c([nH]c3c(Cl)c(Cl)ccc13)C2 (centres unmarked) [Compound 66, 2-amino-1-(8,9-dichloro-1,2,4,5,6,7-hexahydro-1,5-epiminooxocino[5,4-b]indol-12-yl)ethan-1-one] | 6.50 | 6.30 to 7.00 | 6.30 to 7.00
